The text below walks through data of paper PMC8270334, “Design, Sustainable Synthesis and Biological Evaluation of a Novel Dual α2A/5-HT7 Receptor Antagonist with Antidepressant-Like Properties” (Molecules, 2021).

One test deals with T1, α2A-adrenergic receptor (Homo sapiens, UniProt P08913).
T1 construct: host or cells: U2OS (Tango ADRA2A-bla U2OS DA)
T1 sequence (P08913 1-465): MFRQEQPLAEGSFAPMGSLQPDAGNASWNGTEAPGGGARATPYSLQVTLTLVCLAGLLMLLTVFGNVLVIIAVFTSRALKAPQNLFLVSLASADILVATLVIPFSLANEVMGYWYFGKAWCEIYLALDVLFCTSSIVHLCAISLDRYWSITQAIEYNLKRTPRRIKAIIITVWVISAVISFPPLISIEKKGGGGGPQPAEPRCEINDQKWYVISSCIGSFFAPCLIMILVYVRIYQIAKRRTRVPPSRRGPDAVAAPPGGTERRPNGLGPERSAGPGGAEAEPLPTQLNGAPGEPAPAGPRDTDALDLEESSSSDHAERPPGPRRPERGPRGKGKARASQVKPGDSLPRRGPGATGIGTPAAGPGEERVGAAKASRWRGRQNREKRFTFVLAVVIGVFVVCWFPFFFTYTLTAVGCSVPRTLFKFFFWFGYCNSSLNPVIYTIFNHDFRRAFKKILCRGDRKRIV
The test can be described thus: intrinsic activity (antagonist) assay, Tango ADRA2A-bla U2OS DA cells, FRET. Format: cell-based. The conditions noted are these: for Kb: antagonist, ADRA2A-bla U2OS DA cells, ± SEM, two independent experiments; for functional selectivity for α2A-AR over α2B-AR subtype: from Kb values α2A vs α2B. As for the experimental part: Intrinsic activity assays for α2A-adrenergic receptor were performed according to the instructions of the manufacturer of the assay kit containing the ready to use cells with stable expression of the α2A-adrenoceptor (Invitrogen, Life Technologies, Waltham, MA, USA). Tango™ ADRA2A-bla U2OS DA cells (10,000 cells/well) were plated in a 384-well format and incubated for 20 h. […] Cells were then loaded with LiveBLAzer™-FRET B/G substrate for 2 h.

The target of another test is T2, human 5-HT7b receptor (Homo sapiens, UniProt P34969).
T2 construct: expressed in transfected cells; host or cells: HEK293
T2 sequence (P34969 1-432): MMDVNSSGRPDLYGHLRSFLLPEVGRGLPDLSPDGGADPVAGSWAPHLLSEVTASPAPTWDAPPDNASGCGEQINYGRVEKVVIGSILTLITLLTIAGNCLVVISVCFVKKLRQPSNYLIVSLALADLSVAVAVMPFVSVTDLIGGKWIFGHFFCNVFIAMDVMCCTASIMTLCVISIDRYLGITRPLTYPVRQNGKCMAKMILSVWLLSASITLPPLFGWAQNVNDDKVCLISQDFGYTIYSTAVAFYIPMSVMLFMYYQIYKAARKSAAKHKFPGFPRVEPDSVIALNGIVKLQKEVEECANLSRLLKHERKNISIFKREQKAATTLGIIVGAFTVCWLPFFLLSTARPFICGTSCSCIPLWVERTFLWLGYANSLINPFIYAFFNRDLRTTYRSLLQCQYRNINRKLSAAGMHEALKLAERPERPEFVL
The test can be described thus: radioligand binding, [3H]-5-CT displacement at 5-HT7R in HEK293 cells. The conditions noted are these: read-out: Ki [nM] ± SEM 5-HT7. As for the experimental part:
(§1) All experiments were performed using HEK293 cells stably expressing human 5-HT1A, 5-HT6, 5-HT7b, and D2L receptors or CHO-K1 cells with a plasmid containing the human 5-HT2A receptor coding sequence (PerkinElmer, Waltham, MA, USA), according to previously reported procedures. Cells were cultured in 150 cm^2 flasks and, after reaching a 90% confluence, were washed with PBS and the centrifugated (200 g) in PBS containing 0.1 mM EDTA and 1 mM dithiothreitol. Cell pellets were subsequently homogenized (in Ultra Turrax tissue homogenizer) and centrifugated twice (35,000× g for 15 min at 4 °C), with 15 min incubation at 37 °C between the centrifugations. All assays were incubated in dedicated buffers and in a total volume of 200 µL in 96-well microtitre plates for 1 h at 37 °C, except for 5-HT1AR and 5-HT2AR that was incubated for 1 h at room temperature. The process of equilibration is terminated by rapid filtration through Unifilter-96 (PerkinElmer) plates with a 96-well cell harvester and radioactivity retained on the filters was quantified on a Microbeta plate reader (PerkinElmer, USA). For displacement studies, the following assay samples containing the proper radioligand were used: 2.5 nM [^3H]-8-OH-DPAT (PerkinElmer, #NET929001MC) for 5-HT1AR; 1 nM [^3H]-ketanserin (PerkinElmer, #NET791250UC) for 5-HT2AR; 2 nM [^3H]-LSD (PerkinElmer, #NET638250UC) for 5-HT6R; and 0.8 nM [^3H]-5-CT (PerkinElmer, #NET1188U100UC) for 5-HT7R or 2.5 nM [^3H]-raclopride (PerkinElmer, #NET975001MC) for D2LR. Non-specific binding was determined using 10 μM 5-HT for 5-HT1AR and 5-HT7R, 20 μM mianserin for 5-HT2AR, 10 μM methiothepine for 5-HT6R, and 10 μM haloperidol for D2LR. […] Results were expressed as means of at least three separate experiments.

In another test the target is T3, human 5-HT6 receptor (Homo sapiens, UniProt P50406).
T3 construct: expressed in transfected cells; host or cells: HEK293
T3 sequence (P50406 whole entry): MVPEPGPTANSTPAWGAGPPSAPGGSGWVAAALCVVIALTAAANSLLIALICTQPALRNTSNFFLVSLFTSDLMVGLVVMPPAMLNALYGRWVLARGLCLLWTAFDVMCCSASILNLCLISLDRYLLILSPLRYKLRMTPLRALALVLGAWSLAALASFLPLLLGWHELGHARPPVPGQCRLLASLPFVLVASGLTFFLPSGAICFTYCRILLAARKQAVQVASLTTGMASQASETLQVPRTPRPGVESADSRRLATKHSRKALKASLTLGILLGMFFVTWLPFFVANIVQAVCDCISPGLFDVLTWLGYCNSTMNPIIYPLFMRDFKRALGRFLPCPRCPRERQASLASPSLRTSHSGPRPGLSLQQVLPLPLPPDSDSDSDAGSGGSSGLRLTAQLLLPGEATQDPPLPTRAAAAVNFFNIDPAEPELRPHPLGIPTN
The test can be described thus: radioligand binding, [3H]-LSD displacement at 5-HT6R in HEK293 cells. The settings on record: HEK-293 cells, ± SEM. As for the experimental part:
as §1

Another test deals with Albino Swiss mice. Kind of test: forced swim test. The class given is in vivo. The settings on record: ip; for shortening of immobility in FST in comparison to control: dose range 1–8 mg/kg; for shortening of immobility in FST in comparison to control / active dose in FST (antidepressant-like effect): 30 min before test. As for the experimental part:
Adult male Albino Swiss mice (CD-1, 8 weeks old, 25–30 g: Jagiellonian University Medical College, Krakow, Poland) were used in the study. Animals were housed in groups of 8 in a transparent plastic cage (382 × 220 × 150 mm) at room temperature (22 ± 2 °C), on a 12 h light/dark cycle with ad libitum access to food and water. Mice were handled for one week before starting the experimental procedures. The separate groups of animals were used in the forced swim test and in the locomotor studies. All studies were approved by the Institutional Animal Care and Ethics Committee of the Jagiellonian University (approval no.: 80/2015). […] Tested compounds were dissolved with 1% Tween 80. […] The control animals were given ip injections of the 2% DMSO in 1% Tween 80 (vehicle). The volume of vehicle or drug solutions was 10 mL/kg. The experiment was performed on mice according to the method previously described. Mice were forced to swim individually in the glass cylinders (height 25 cm, diameter 10 cm) filled with water at 24 ± 1 °C to a depth of 10 cm and left there for 6 min. Following a 2 min habituation period, total time spent immobile was recorded over the next 4 min. The animal was regarded as immobile when it remained floating passively in the water, making only small movements to keep its head above the water.

A further test deals with T4, human D2L receptor (Homo sapiens, UniProt P14416).
T4 construct: expressed in transfected cells; host or cells: HEK293
T4 sequence (P14416 whole entry): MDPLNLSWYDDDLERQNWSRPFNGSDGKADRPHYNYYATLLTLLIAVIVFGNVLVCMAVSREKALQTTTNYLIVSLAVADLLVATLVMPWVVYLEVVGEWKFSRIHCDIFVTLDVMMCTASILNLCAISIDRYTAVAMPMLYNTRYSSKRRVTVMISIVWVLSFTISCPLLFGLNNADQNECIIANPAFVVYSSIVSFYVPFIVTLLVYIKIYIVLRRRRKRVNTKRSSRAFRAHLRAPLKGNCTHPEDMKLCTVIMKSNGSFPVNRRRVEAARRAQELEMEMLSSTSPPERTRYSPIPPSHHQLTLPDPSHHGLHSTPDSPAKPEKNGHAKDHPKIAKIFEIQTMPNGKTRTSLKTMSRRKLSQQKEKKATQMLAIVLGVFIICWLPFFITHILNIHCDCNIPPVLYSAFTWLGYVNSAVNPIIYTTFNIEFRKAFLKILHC
Kind of test: radioligand binding, [3H]-raclopride displacement at D2LR in HEK293 cells. The conditions noted are these: HEK-293 cells, ± SEM; read-out: Ki [nM] D2. As for the experimental part:
as §1

A further test concerns the target α1-AR. Kind of test: radioligand binding, displacement of [3H]prazosin from α1-adrenoreceptors. The settings on record: rat cerebral cortex, ± SEM. As for the experimental part:
The brains were homogenized in 20 volumes of ice-cold 50 mM Tris–HCl buffer (pH 7.6) and centrifuged at 20,000 × g for 20 min (0–4 °C). The cell pellet was resuspended in the Tris–HCl buffer and centrifuged again. Radioligand binding assays were performed in plates (MultiScreen/Millipore). […] The incubation was terminated by rapid filtration over glass fibre filters (Whatman GF/C) using a vacuum manifold (Millipore). The filters were then washed twice with the assay buffer and placed in scintillation vials with a liquid scintillation cocktail. Radioactivity was measured in a WALLAC 1409 DSA liquid scintillation counter. All assays were made in duplicate.

For the molecule `CC1(C)Cc2cccc(OCCN3CCC(NS(=O)(=O)c4ccc(F)cc4)CC3)c2O1` [Compound 6, 4-Fluoro-N-{1-[2-(2,2-dimethyl-2,3-dihydrobenzofuran-7-yloxy)ethyl]piperidin-4-yl} benzenesulfonamide], the Kb (usually the equilibrium dissociation constant of an antagonist, usually derived from a functional assay) on α2A-adrenergic receptor amounted to 12 ± 4 nM. Besides, the “functional selectivity for α2A-AR over α2B-AR subtype” value (“functional selectivity for α2A-AR” below) on α2A-adrenergic receptor is reported as “up to seven”. Besides, the Ki – broadly, a dissociation constant, usually derived from enzyme kinetics or from competition with a known ligand – turned out to be 35 ± 22 nM at human 5-HT7b receptor, 839 ± 70 nM at human 5-HT6 receptor, 327 ± 29 nM on human D2L receptor and 761 ± 86 nM at α1-AR. Further, in the test with Albino Swiss mice, the “shortening of immobility in FST in comparison to control” value (“shortening of immobility in FST” for short) is “about 25%”. Besides, the “active dose in FST (antidepressant-like effect)” value (from here on “active dose in FST”) with Albino Swiss mice turned out to be 8 mg/kg.

Regarding `CC1(C)Cc2cccc(OCCN3CCC(NS(=O)(=O)c4cc(Cl)ccc4F)CC3)c2O1` [Compound 8, 5-Chloro-2-fluoro-N-{1-[2-(2,2-dimethyl-2,3-dihydrobenzofuran-7-yloxy)ethyl]piperidin-4-yl}benzenesulfonamide], the Kb on α2A-adrenergic receptor was 40 ± 11 nM. Also, the “functional selectivity for α2A-AR” value at α2A-adrenergic receptor is “four”. The Ki at human 5-HT7b receptor was found to be 30 ± 11 nM; at human 5-HT6 receptor, 873 ± 91 nM; at human D2L receptor, 388 ± 37 nM; on α1-AR, 1260 ± 101 nM. Besides, the “shortening of immobility in FST” value in the test with Albino Swiss mice is reported as “about 25%”. The “active dose in FST” value in the test with Albino Swiss mice is listed as 4 mg/kg.

Molecule `CC1(C)Cc2cccc(OCCN3CCC(NS(=O)(=O)c4cncc5ccccc45)CC3)c2O1` [Compound 13, 4-Isoquinoline-N-{1-[2-(2,2-dimethyl-2,3-dihydrobenzofuran-7-yloxy)ethyl]piperidin-4-yl}sulfonamide] showed a Kb on α2A-adrenergic receptor of 31 ± 8 nM. In addition, on α2A-adrenergic receptor, the “functional selectivity for α2A-AR” value is “did not show any preference”. Besides, the Ki at human 5-HT7b receptor is 91 ± 25 nM; on human 5-HT6 receptor, 1120 ± 114 nM; at human D2L receptor, 326 ± 25 nM; at α1-AR, 429 ± 66 nM. Further, the “shortening of immobility in FST” value in the test on Albino Swiss mice is reported as “about 25%”. In the test with Albino Swiss mice, the “active dose in FST” value turned out to be 1 mg/kg. In the test with Albino Swiss mice (doses of 4 and 8 mg/kg), the “effect in the FST” value was “lack of pharmacological effect”.
